A word on the mortality: it is the share of the test organisms that died.

Data on 20 compounds can be found in patent publication US7696129B2, “Substituted aromatic amide derivative, intermediate thereof, agrohorticultural insecticide containing thereof and method for the use thereof” (Nihon Nohyaku Co., Ltd., priority 2001, dated 2010).

Common to all, as to format: in vivo
Series [1] concerns Diamond Back Moth (Plutella xylostella). Kind of series: Test Example 1: insecticidal effect on diamond back moth, immersion of Chinese cabbage seedling with eggs. The following applies: seedling with eggs immersed about 30 seconds, 25° C., six days after the immersion; for Test Example 1 (insecticidal effect, mortality criterion): 50 ppm; for mortality at 50 ppm: Plutella xylostella, 144 h, read-out: Test Example 1 (insecticidal effect, mortality criterion). An outline of the steps:
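Chinese cabbage seedlings bearing 2-day-old moth eggs dipped about 30 s in compound at 50 ppm, air-dried, held at 25° C. Hatched larvae counted six days later to give mortality; triplicate groups of 10 insects.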

The subject of series [2] is Common Cutworm (Spodoptera litura). Kind of series: Test Example 2: insecticidal effect on common cutworm, cabbage leaf immersion. The following applies: cabbage leaf immersed about 30 seconds, second-instar larvae, 25° C., eight days after the inoculation; for Test Example 2 (insecticidal effect, mortality criterion): 50 ppm; for mortality at 50 ppm: Spodoptera litura, 192 h, read-out: Test Example 2 (insecticidal effect, mortality criterion). The gist of the method:
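Cabbage leaf pieces dipped about 30 seconds in 50 ppm compound dilution, air-dried, then infested with second-instar larvae and kept at 25° C. Dead and alive counted eight days after inoculation to give mortality; triplicate groups of 10 insects.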

Series [3] deals with Smaller Tea Tortrix (Adxophyes sp.). Description: Test Example 3: insecticidal effect on smaller tea tortrix, tea leaf immersion. The following applies: 50 ppm, tea leaves immersed about 30 seconds, larvae, 25° C., humidity 70%, eight days after the inoculation. An outline of the steps: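 Tea leaves dipped about 30 s in compound diluted to 50 ppm, air-dried, then infested with smaller tea tortrix larvae at 25°C and 70% humidity. Mortality counted 8 days post-inoculation and scored by a graded criterion; triplicate groups of 10 insects.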

For series [4], the system named is Diamond Back Moth (Plutella xylostella). Description: Test Example 4: controlling effect on diamond back moth with soil treatment (pricking-in hole treatment with granules). The following applies: 10 mgAI/plant, soil treatment at fix planting, about 50 eggs inoculated nine days after planting. The source says:
Controlling Effect on Diamond Back Moth (Plutella xylostella) with Soil Treatment of […] The pricking-in hole treatment was done with the granules containing each compound listed in Tables 4 according to the formulation examples of the present invention, at the fix planting of […] (cultivar; YR Seitoku). Nine days after the fix planting, about 50 eggs of diamond back moth (Plutella xylostella) were innoculated, then the number of the parasitic insects of diamond back moth (Plutella xylostella) was counted on the specified days after the innoculation.

As to `CSCC(C)(C)NC(=O)c1c(I)cccc1C(=O)Nc1ccc(C(C(F)(F)F)C(F)(F)F)cc1C` [5-30], the “Test Example 1 (insecticidal effect, mortality criterion)” value in series [1] is on record as “A (Mortality 100%)”. In series [2], the “Test Example 2 (insecticidal effect, mortality criterion)” value is “A (Mortality 100%)”. Moreover, the “Test Example 3 (insecticidal effect, mortality criterion)” value in series [3] was “A (Mortality 100%)”. In series [4], the “Number of the parasitic insects/three plants After 18 days” value was 0 parasitic insects/three plants, the “Number of the parasitic insects/three plants After 25 days” value is reported as 3 parasitic insects/three plants and the “Number of the parasitic insects/three plants After 32 days” value was 22 parasitic insects/three plants.
Consider `CC(C)(CS(C)(=O)=O)NC(=O)c1c(I)cccc1C(=O)Nc1ccc(C(C(F)(F)F)C(F)(F)F)nc1Cl` [8-6], for which, in series [1], the “Test Example 1 (insecticidal effect, mortality criterion)” value is “A (Mortality 100%)”. In series [2], the “Test Example 2 (insecticidal effect, mortality criterion)” value is recorded as “D (Mortality 79-50%)”. Further, the “Test Example 3 (insecticidal effect, mortality criterion)” value in series [3] is “A (Mortality 100%)”.
Take `CSCC(C)(C)NC(=O)c1c(C(=O)Nc2ccc(C(C(F)(F)F)C(F)(F)F)nc2C)cccc1[N+](=O)[O-]` [8-7]: the “Test Example 1 (insecticidal effect, mortality criterion)” value in series [1] is “A (Mortality 100%)”. Moreover, the “Test Example 2 (insecticidal effect, mortality criterion)” value in series [2] was “C (Mortality 89-80%)”. The “Test Example 3 (insecticidal effect, mortality criterion)” value in series [3] is reported as “E (Mortality 49% or less)”.
In the case of `Cc1nc(C(C(F)(F)F)C(F)(F)F)ccc1NC(=O)c1cccc([N+](=O)[O-])c1C(=O)NC(C)(C)C[S+](C)[O-]` (stereo not drawn) [8-8], the “Test Example 1 (insecticidal effect, mortality criterion)” value in series [1] is recorded as “A (Mortality 100%)”. The “Test Example 2 (insecticidal effect, mortality criterion)” value in series [2] is listed as “E (Mortality 49% or less)”. In series [3], the “Test Example 3 (insecticidal effect, mortality criterion)” value is “E (Mortality 49% or less)”.
`Cc1nc(C(C(F)(F)F)C(F)(F)F)ccc1NC(=O)c1cccc([N+](=O)[O-])c1C(=O)NC(C)(C)CS(C)(=O)=O` [8-9]: the “Test Example 1 (insecticidal effect, mortality criterion)” value in series [1] was “A (Mortality 100%)”. Also, the “Test Example 2 (insecticidal effect, mortality criterion)” value in series [2] is on record as “D (Mortality 79-50%)”. Besides, the “Test Example 3 (insecticidal effect, mortality criterion)” value in series [3] was “E (Mortality 49% or less)”.
The matching figures for `Cc1nc(C(C(F)(F)F)C(F)(F)F)ccc1NC(=O)c1cccc(I)c1C(=O)NC(C)C` [8-10]: “A (Mortality 100%)”, “A (Mortality 100%)” and “A (Mortality 100%)”.
The like results for `CSCC(C)(C)NC(=O)c1c(I)cccc1C(=O)Nc1ccc(C(C(F)(F)F)C(F)(F)F)nc1C` [8-11] were, in that order, “A (Mortality 100%)”, “A (Mortality 100%)” and “A (Mortality 100%)”.
For `Cc1nc(C(C(F)(F)F)C(F)(F)F)ccc1NC(=O)c1cccc(I)c1C(=O)NC(C)(C)C[S+](C)[O-]` (stereo not drawn) [8-12], the “Test Example 1 (insecticidal effect, mortality criterion)” value in series [1] is “A (Mortality 100%)”. In addition, the “Test Example 2 (insecticidal effect, mortality criterion)” value in series [2] is reported as “A (Mortality 100%)”. Further, the “Test Example 3 (insecticidal effect, mortality criterion)” value in series [3] is “A (Mortality 100%)”.
As for `Cc1nc(C(C(F)(F)F)C(F)(F)F)ccc1NC(=O)c1cccc(I)c1C(=O)NC(C)(C)CS(C)(=O)=O` [8-13], the “Test Example 1 (insecticidal effect, mortality criterion)” value in series [1] is listed as “A (Mortality 100%)”. In addition, the “Test Example 2 (insecticidal effect, mortality criterion)” value in series [2] is on record as “A (Mortality 100%)”. In series [3], the “Test Example 3 (insecticidal effect, mortality criterion)” value was “A (Mortality 100%)”.
Consider `CSCC(C)NC(=O)c1c(I)cccc1C(=O)Nc1ccc(C(C(F)(F)F)C(F)(F)F)nc1C` (stereo not drawn) [8-14], for which the “Test Example 1 (insecticidal effect, mortality criterion)” value in series [1] is recorded as “A (Mortality 100%)”. For the same compound, the “Test Example 2 (insecticidal effect, mortality criterion)” value in series [2] was “A (Mortality 100%)”. For the same compound, the “Test Example 3 (insecticidal effect, mortality criterion)” value in series [3] is recorded as “A (Mortality 100%)”.
As for `CCNC(=O)OCC(C)NC(=O)c1c(I)cccc1C(=O)Nc1ccc(C(C(F)(F)F)C(F)(F)F)nc1C` (stereo not drawn) [8-26], the “Test Example 1 (insecticidal effect, mortality criterion)” value in series [1] is reported as “A (Mortality 100%)”. Also, the “Test Example 2 (insecticidal effect, mortality criterion)” value in series [2] is “D (Mortality 79-50%)”. Also, the “Test Example 3 (insecticidal effect, mortality criterion)” value in series [3] was “A (Mortality 100%)”.
Turning to `Cc1nc(C(C(F)(F)F)C(F)(F)F)ccc1NC(=O)c1cccc(I)c1C(=O)NC(C)COC(=O)NCc1ccccc1` (stereo not drawn) [8-27], in series [1], the “Test Example 1 (insecticidal effect, mortality criterion)” value is listed as “A (Mortality 100%)”. Besides, the “Test Example 2 (insecticidal effect, mortality criterion)” value in series [2] is “E (Mortality 49% or less)”. The “Test Example 3 (insecticidal effect, mortality criterion)” value in series [3] is recorded as “E (Mortality 49% or less)”.
Take `CSCC1(C)COC(c2c(I)cccc2C(=O)Nc2ccc(C(C(F)(F)F)C(F)(F)F)cc2C)=N1` (stereo not drawn) [10-2]: the “Test Example 1 (insecticidal effect, mortality criterion)” value in series [1] is given as “A (Mortality 100%)”. For the same compound, the “Test Example 2 (insecticidal effect, mortality criterion)” value in series [2] is recorded as “E (Mortality 49% or less)”. The “Test Example 3 (insecticidal effect, mortality criterion)” value in series [3] is on record as “E (Mortality 49% or less)”.
As to `Cc1cc(C(C(F)(F)F)C(F)(F)F)ccc1NC(=O)c1cccc(I)c1C1=NC(C)(C[S+](C)[O-])CO1` (stereo not drawn) [10-3], the “Test Example 1 (insecticidal effect, mortality criterion)” value in series [1] is listed as “A (Mortality 100%)”. In addition, the “Test Example 2 (insecticidal effect, mortality criterion)” value in series [2] is listed as “E (Mortality 49% or less)”. Further, the “Test Example 3 (insecticidal effect, mortality criterion)” value in series [3] was “E (Mortality 49% or less)”.
With `Cc1cc(C(C(F)(F)F)C(F)(F)F)ccc1NC(=O)c1cccc(I)c1C1=NC(C)(CS(C)(=O)=O)CO1` (stereo not drawn) [10-4], in series [1], the “Test Example 1 (insecticidal effect, mortality criterion)” value was “A (Mortality 100%)”. The “Test Example 2 (insecticidal effect, mortality criterion)” value in series [2] is “E (Mortality 49% or less)”. In series [3], the “Test Example 3 (insecticidal effect, mortality criterion)” value is recorded as “E (Mortality 49% or less)”.
Regarding `CCc1cc(CC(F)(F)F)ccc1NC(=O)c1cccc(I)c1C(=O)NC(C)(C)CSC` [Compound No. 5-2], the “Test Example 1 (insecticidal effect, mortality criterion)” value in series [1] was “A (Mortality 100%)”. In addition, in series [2], the “Test Example 2 (insecticidal effect, mortality criterion)” value is recorded as “A (Mortality 100%)”. Besides, the “Test Example 3 (insecticidal effect, mortality criterion)” value in series [3] is listed as “A (Mortality 100%)”.
For `CSCC(C)(C)NC(=O)c1c(I)cccc1C(=O)Nc1ccc(C(C(F)(F)F)C(F)(F)F)cc1C` [Compound No. 5-28, N^2-(1,1-dimethyl-2-methylthioethyl)-3-iodo-N^1-{2-methyl-4-[2,2,2-trifluoro-1-(trifluoromethyl)ethyl]phenyl}phthalamide], the mortality at 50 ppm in series [1] amounted to 100%. In series [2], the mortality at 50 ppm was determined as 100%. Besides, the “Test Example 3 (insecticidal effect, mortality criterion)” value in series [3] is “A (Mortality 100%)”. In series [4], the “Number of the parasitic insects/three plants After 18 days” value is listed as 0 parasitic insects/three plants, the “Number of the parasitic insects/three plants After 25 days” value was 5 parasitic insects/three plants and the “Number of the parasitic insects/three plants After 32 days” value is listed as 14 parasitic insects/three plants.
Take `Cc1cc(C(C(F)(F)F)C(F)(F)F)ccc1NC(=O)c1cccc(I)c1C(=O)NC(C)(C)C[S+](C)[O-]` (stereo not drawn) [Compound No. 5-29, N^2-(1,1-dimethyl-2-methylsulfinylethyl)-3-iodo-N^1-[2-methyl-4-{2,2,2-trifluoro-1-(trifluoromethyl)ethyl}phenyl]phthalamide]: the mortality at 50 ppm in series [1] was 100%. Moreover, the mortality at 50 ppm in series [2] was found to be 100%. In series [3], the “Test Example 3 (insecticidal effect, mortality criterion)” value was “A (Mortality 100%)”. Further, in series [4], the “Number of the parasitic insects/three plants After 18 days” value was 0 parasitic insects/three plants, the “Number of the parasitic insects/three plants After 25 days” value was 0 parasitic insects/three plants and the “Number of the parasitic insects/three plants After 32 days” value was 0 parasitic insects/three plants.
For `CSCC(C)(C)NC(=O)c1c(I)cccc1C(=O)Nc1ccc(C(C(F)(F)F)C(F)(F)F)nc1Cl` [Compound No. 8-4, N^2-(1,1-dimethyl-2-methylthioethyl)-3-iodo-N^1-{2-chloro-6-[2,2,2-trifluoro-1-(trifluoromethyl)ethyl]pyridin-3-yl}phthalamide], the mortality at 50 ppm in series [1] and in series [2] was 100% in each case. The “Test Example 3 (insecticidal effect, mortality criterion)” value in series [3] was “A (Mortality 100%)”.
With `Cc1cc(C(C(F)(F)F)C(F)(F)F)ccc1NC(=O)c1cccc(I)c1C1=NC(C)(C)CO1` [Compound No. 10-1, 3-iodo-2-(4,4-dimethyloxazolin-2-yl)-2′-methyl-4′-[2,2,2-trifluoro-1-(trifluoromethyl)ethyl]benzanilide], the mortality at 50 ppm in series [1] is 100%; in series [2], not above 49%. In series [3], the “Test Example 3 (insecticidal effect, mortality criterion)” value is listed as “E (Mortality 49% or less)”.
